For this assay, the system named is P.yoelii. Nature of the assay: In vivo effect on P.yoelii in mice (inhibition of parasitaemia). The conditions noted are these: for inhibition in vivo at 2.5 mg/kg: 2.5 mg/Kg × 7; for inhibition in vivo at 5 mg/kg: 5.0 mg/Kg × 7; for inhibition in vivo at 0.5 mg/kg: 0.50 mg/Kg × 7; for inhibition in vivo at 1 mg/kg: 1.0 mg/Kg × 7; for ED50 for naphthoquinone: 5760 min. The procedure: The naphthoquinone and the pyridinol were each suspended in 0.25% (w/v) celacol in water by milling for 16-24 hours at 26° C. The suspensions were subsequently serially diluted with 0.25% (w/v) celacol in water. At time 0, 0.1 ml of a suspension of 10^7 P.yoelii-parasitised red blood cells/ml of phosphate buffered saline were injected intravenously into 15-20 g mice through a tail vein. Groups of 5 mice per treatment were dosed orally at times 6, 22, 30, 46, 54, 70 and 78 hours with 0.2 ml of the drug suspension. Tail-blood smears were taken at 96 hours, stained with Giemsa and the percentage of red blood cells infected determined and compared to untreated, infected controls. Percent inhibition was correlated with dose to provide ED50 values for each drug alone. In subsequent experiments dilutions of the two drugs, alone and in combination were used, and the percentage inhibition of parasitaemia and ED50 values (of each drug at fixed concentrations of the other) were determined. The results are shown respectively in Tables V and VI. A number of combinations of clopidol (4-pyridinol) and naphthoquinones were assayed and compared with each drug alone for their antimalarial effect against P.yoelii in vivo by the method of Example 4.

[1] abbreviates: Plasmodium yoelii, po, 96 h, naphthoquinone alone.
Where [2] appears, read: naphthoquinone 2.5 + clopidol 1.4 mg/Kg × 7.
Where [3] appears, read: naphthoquinone 2.5 + clopidol 4.3 mg/Kg × 7.
Where [4] appears, read: naphthoquinone 5.0 + clopidol 1.4 mg/Kg × 7.
[5] abbreviates: naphthoquinone 5.0 + clopidol 4.3 mg/Kg × 7.
[6] abbreviates: naphthoquinone 0.50 + clopidol 1.4 mg/Kg × 7.
[7] abbreviates: naphthoquinone 0.50 + clopidol 4.3 mg/Kg × 7.
[8] abbreviates: naphthoquinone 1.0 + clopidol 1.4 mg/Kg × 7.
[9] abbreviates: naphthoquinone 1.0 + clopidol 4.3 mg/Kg × 7.

11 compounds from patent publication US5053418A, “Antiprotozoal agents” (Burroughs Wellcome Co., priority 1983, dated 1991) can be followed below.

As a reminder, the inhibition in vivo is the relative decrease from the control value, in per cent. With `CC(=O)OC1=C(C2CCCCC2)C(=O)c2ccccc2C1=O`, the inhibition in vivo at 2.5 mg/kg under setting [1] was determined as 2%. In addition, the inhibition in vivo at 5 mg/kg under setting [1] came out at 3%. Moreover, the “% inhibition of parasitaemia (combination)” value (“% inhibition of parasitaemia” for short) came to 3% under setting [2], 50% under setting [3], 22% under setting [4] and 86% under setting [5].
As for `O=C1C(O)=C(C2CCC(C3CCCCC3)CC2)C(=O)c2ccccc21` (stereo not shown) [drawing 17, 2-(4-cyclohexylcyclohexyl)-3-hydroxy-1,4-naphthoquinone], under “Plasmodium yoelii, po, 96 h, naphthoquinone alone, 0.075 mg/Kg × 7”, the inhibition in vivo at 0.075 mg/kg turned out to be 17%. Further, where the note is “Plasmodium yoelii, po, 96 h, naphthoquinone alone, 0.15 mg/Kg × 7”, the inhibition in vivo at 0.15 mg/kg is 16%. The “% inhibition of parasitaemia” value was determined as 45% (naphthoquinone 0.075 + clopidol 1.9 mg/Kg × 7), 69% (naphthoquinone 0.075 + clopidol 3.75 mg/Kg × 7), 80% (naphthoquinone 0.15 + clopidol 1.9 mg/Kg × 7) and 92% (naphthoquinone 0.15 + clopidol 3.75 mg/Kg × 7).
On to `CC(C)(C)OC1CCC(C2=C(O)C(=O)c3ccccc3C2=O)CC1` (stereo not shown), for which, for the setting “Plasmodium yoelii, po, 96 h, naphthoquinone alone, 0.13 mg/Kg × 7”, the inhibition in vivo at 0.13 mg/kg was found to be 1%. For the setting “Plasmodium yoelii, po, 96 h, naphthoquinone alone, 0.25 mg/Kg × 7”, the inhibition in vivo at 0.25 mg/kg came out at 5%. The “% inhibition of parasitaemia” value was 84% (naphthoquinone 0.13 + clopidol 4.3 mg/Kg × 7), 31% (naphthoquinone 0.13 + clopidol 13 mg/Kg × 7), 97% (naphthoquinone 0.25 + clopidol 4.3 mg/Kg × 7) and 80% (naphthoquinone 0.25 + clopidol 13 mg/Kg × 7).
Regarding `CCCCCCCCCC1=C(O)C(=O)c2ccccc2C1=O` [(CH2)8 Me, 2-n-nonyl-3-hydroxy-1,4-naphthoquinone], the inhibition in vivo at 3 mg/kg (Plasmodium yoelii, po, 96 h, naphthoquinone alone, 3.0 mg/Kg × 7) came out at 3%. In addition, the inhibition in vivo at 9 mg/kg (Plasmodium yoelii, po, 96 h, naphthoquinone alone, 9.0 mg/Kg × 7) was found to be 69%. For the same compound, the “% inhibition of parasitaemia” value runs as follows: (naphthoquinone 3.0 + clopidol 1.4 mg/Kg × 7) 42%; (naphthoquinone 3.0 + clopidol 4.3 mg/Kg × 7) 76%; (naphthoquinone 9.0 + clopidol 1.4 mg/Kg × 7) 88%; (naphthoquinone 9.0 + clopidol 4.3 mg/Kg × 7) 99%.
Turning to `CC1(C)CCC(C2=C(O)C(=O)c3ccccc3C2=O)CC1`, the inhibition in vivo at 2.5 mg/kg under setting [1] was determined as 0%. The inhibition in vivo at 5 mg/kg under setting [1] came out at 0%. Moreover, the “% inhibition of parasitaemia” value reads like this: under setting [2], 22%; under setting [3], 45%; under setting [4], 46%; under setting [5], 73%.
For `CC(C)(C)C1CCC(CC2=C(O)C(=O)c3ccccc3C2=O)CC1` (stereo not shown), the inhibition in vivo at 0.5 mg/kg under setting [1] is 10%. Under setting [1], the inhibition in vivo at 1 mg/kg was 19%. Also, the “% inhibition of parasitaemia” value amounted to 17% under setting [6], 61% under setting [7], 52% under setting [8] and 93% under setting [9].
For the compound `O=C1C(O)=C(CCCCCCCCC2CCCCC2)C(=O)c2ccccc21`, the inhibition in vivo at 0.5 mg/kg under setting [1] came to 7%. Moreover, the inhibition in vivo at 1 mg/kg under setting [1] amounted to 19%. The “% inhibition of parasitaemia” value runs as follows: (naphthoquinone 0.50 + clopidol 2.5 mg/Kg × 7) 10%; (naphthoquinone 0.50 + clopidol 5.0 mg/Kg × 7) 45%; (naphthoquinone 1.0 + clopidol 2.5 mg/Kg × 7) 31%; (naphthoquinone 1.0 + clopidol 5.0 mg/Kg × 7) 55%.
On to `CCC1(CC)CCC(C2=C(O)C(=O)c3ccccc3C2=O)CC1`, for which the inhibition in vivo at 0.5 mg/kg under setting [1] came to 5%. Moreover, the inhibition in vivo at 1 mg/kg under setting [1] is 4%. The “% inhibition of parasitaemia” value is 14% under setting [6], 54% under setting [7], 68% under setting [8] and 75% under setting [9].
Consider `CC(C)(C)C1CCC(C2=C(O)C(=O)c3ccccc3C2=O)CC1` (stereo not shown) [drawing 25], for which the inhibition in vivo at 0.6 mg/kg (Plasmodium yoelii, po, 96 h, naphthoquinone alone, 0.6 mg/Kg × 7) amounted to 24%. The inhibition in vivo at 0.9 mg/kg (Plasmodium yoelii, po, 96 h, naphthoquinone alone, 0.9 mg/Kg × 7) came to 35%. In addition, the “% inhibition of parasitaemia” value (naphthoquinone 0.6 + clopidol 2.5 mg/Kg × 7) is given as 74%, the “% inhibition of parasitaemia” value (naphthoquinone 0.6 + clopidol 5.0 mg/Kg × 7) turned out to be 94%, the “% inhibition of parasitaemia” value (naphthoquinone 0.9 + clopidol 2.5 mg/Kg × 7) amounted to 96% and the “% inhibition of parasitaemia” value (naphthoquinone 0.9 + clopidol 5.0 mg/Kg × 7) came to 97%.
Take `O=C1C(O)=C(C2CCC(c3ccccc3)CC2)C(=O)c2ccccc21` (stereo not shown): the inhibition in vivo at 0.04 mg/kg (Plasmodium yoelii, po, 96 h, naphthoquinone alone, 0.040 mg/Kg × 7) is 0%. Besides, under “Plasmodium yoelii, po, 96 h, naphthoquinone alone, 0.050 mg/Kg × 7”, the inhibition in vivo at 0.05 mg/kg came out at 0%. Moreover, the “% inhibition of parasitaemia” value by setting is: (naphthoquinone 0.040 + clopidol 1.9 mg/Kg × 7) 23%; (naphthoquinone 0.040 + clopidol 3.75 mg/Kg × 7) 39%; (naphthoquinone 0.050 + clopidol 1.9 mg/Kg × 7) 34%; (naphthoquinone 0.050 + clopidol 3.75 mg/Kg × 7) 73%.
For the compound `O=C1C(O)=C(C2CCC(C3CCCCC3)CC2)C(=O)c2ccccc21` (stereo not shown) [2-(4-cyclohexylcyclohexyl)-3-hydroxy-1,4-naphthoquinone], under “Plasmodium yoelii, po, 96 h, naphthoquinone alone, 0.019 mg/Kg/dose, 7 doses”, the inhibition in vivo at 0.019 mg/kg was determined as 13%. Moreover, the inhibition in vivo at 0.037 mg/kg (Plasmodium yoelii, po, 96 h, naphthoquinone alone, 0.037 mg/Kg/dose, 7 doses) amounted to 28%. Also, the inhibition in vivo at 0.075 mg/kg (Plasmodium yoelii, po, 96 h, naphthoquinone alone, 0.075 mg/Kg/dose, 7 doses) was found to be 17%. Also, the inhibition in vivo at 0.15 mg/kg (Plasmodium yoelii, po, 96 h, naphthoquinone alone, 0.15 mg/Kg/dose, 7 doses) worked out at 16%. In addition, the inhibition in vivo at 0.3 mg/kg (Plasmodium yoelii, po, 96 h, naphthoquinone alone, 0.30 mg/Kg/dose, 7 doses) was 74%. Also, under “Plasmodium yoelii, po, 96 h, naphthoquinone alone, 0.60 mg/Kg/dose, 7 doses”, the inhibition in vivo at 0.6 mg/kg is 99%. Also, the ED50 for naphthoquinone (fixed clopidol 0.000 mg/kg/dose (alone)) is 0.224 (0.224 to 0.208) mg/Kg/dose; the ED50 for naphthoquinone (fixed clopidol 0.94 mg/kg/dose) was 0.109 (0.125 to 0.0909) mg/Kg/dose; the ED50 for naphthoquinone (fixed clopidol 1.9 mg/kg/dose) is given as 0.0762 (0.0975 to 0.0599) mg/Kg/dose; the ED50 for naphthoquinone (fixed clopidol 3.75 mg/kg/dose) is 0.0519 (0.0599 to 0.0450) mg/Kg/dose; the ED50 for naphthoquinone (fixed clopidol 7.5 mg/kg/dose) was 0.0219 (0.0274 to 0.0151) mg/Kg/dose; the ED50 for naphthoquinone (fixed clopidol 15. mg/kg/dose) is reported as 0.0197 (0.0242 to 0.0121) mg/Kg/dose. Further, the “% inhibition of parasitaemia” value runs as follows: (naphthoquinone 0.019 + clopidol 0.94 mg/Kg/dose) 16%; (naphthoquinone 0.019 + clopidol 1.9 mg/Kg/dose) 23%; (naphthoquinone 0.019 + clopidol 3.7 mg/Kg/dose) 11%; (naphthoquinone 0.019 + clopidol 7.5 mg/Kg/dose) 42%; (naphthoquinone 0.019 + clopidol 15 mg/Kg/dose) 48%; (naphthoquinone 0.037 + clopidol 0.94 mg/Kg/dose) 20%. In addition, the “% inhibition of parasitaemia” value reads like this: (naphthoquinone 0.037 + clopidol 1.9 mg/Kg/dose) 23%; (naphthoquinone 0.037 + clopidol 3.7 mg/Kg/dose) 32%; (naphthoquinone 0.037 + clopidol 7.5 mg/Kg/dose) 73%; (naphthoquinone 0.037 + clopidol 15 mg/Kg/dose) 77%; (naphthoquinone 0.075 + clopidol 0.94 mg/Kg/dose) 35%; (naphthoquinone 0.075 + clopidol 1.9 mg/Kg/dose) 45%. The “% inhibition of parasitaemia” value (naphthoquinone 0.075 + clopidol 3.7 mg/Kg/dose) is 69%; the “% inhibition of parasitaemia” value (naphthoquinone 0.075 + clopidol 7.5 mg/Kg/dose) was found to be 86%; the “% inhibition of parasitaemia” value (naphthoquinone 0.15 + clopidol 0.94 mg/Kg/dose) is listed as 62%; the “% inhibition of parasitaemia” value (naphthoquinone 0.15 + clopidol 1.9 mg/Kg/dose) was 80%; the “% inhibition of parasitaemia” value (naphthoquinone 0.15 + clopidol 3.7 mg/Kg/dose) was 92%; the “% inhibition of parasitaemia” value (naphthoquinone 0.30 + clopidol 0.94 mg/Kg/dose) is recorded as 96%. The “% inhibition of parasitaemia” value (naphthoquinone 0.30 + clopidol 1.9 mg/Kg/dose) was 98%.
